Test results published in paper PMC9415903, “Confocal Laser Scanning Microscopy and Model Membranes to Study Translocation Mechanisms of Membrane Active Peptides” (Pharmaceutics, 2022).
Entries after “also recorded” stand apart in the source; their conditions may differ.

What was measured:
[1] = Peptide internalization and Alexa Fluor 488 efflux in POPE GUVs, confocal laser scanning microscopy; assay type: in vitro ADME; conditions: room temperature; for Kint, peptide internalization rate constant: GUVs POPC/POPE/chol 50/30/20 mol%, 2 µM fluorescently labeled peptide, 180 mM glucose, 20 mM Hepes pH 7.5, CLSM fluorescence inside GUVs, fit F(t)=1−exp(−kint×t), data from three experiments averaged
Procedure: (§1) Giant unilamellar vesicles (GUVs) were obtained by the electroformation method as previously indicated. For that, 30 µL of different lipid mixtures (detailed in the Results section) were dissolved in chloroform and spread on indium tin oxide (ITO) glass slides (Sigma-Aldrich, Schnelldorf, Germany). After drying, the lipid film was gently hydrated with 200 mM sucrose dissolved in double distilled water, mixed with a fluorescent tracer, Alexa Fluor 488-maleimide (AF 488), at a concentration of 10 µM. The freshly prepared GUVs were then transferred in 180 mM glucose solution containing 20 mM Hepes, with a pH of 7.5. The samples were observed by confocal microscope at room temperature.
(§2) The experiments were performed using a confocal laser scanning microscope (Nikon Ti-E, Tokyo, Japan), equipped with LU4 Four-Laser Module with AOTF, a Plan Fluor 40x DIC M N2 objective and a DS-F1camera. An Alexa Fluor 488 tracer was excited using a line of 457–514 nm argon ion laser, TAMRA-TAT peptide with a diode laser emitting at 561 nm, and Dy647P1-peptides with a 642 nm diode laser. To observe the accumulation and internalization of peptides and the efflux of fluorescent tracers, the freshly prepared GUVs were transferred to a solution of glucose containing 2 µM fluorescently labeled peptide, to provide a homogeneous distribution of peptides to membranes. For each type of experiment, at least 10–15 GUVs with a diameter of 30–40 μm from two independent experiments were analyzed. Successive images were collected using the Nis-Elements Advanced Research imaging software (Nikon) and then quantification of fluorescence was performed using Fiji ImageJ [14]. The resulting data were then analyzed with Origin Pro 8.5 (OriginLab Corporation, Northampton, MA, USA).
(§3) For the present study, GUVs mimicking the mammalian plasma membrane were prepared as follows: POPC/cholesterol 80/20 mol%, POPC/POPE/cholesterol 50/30/20 mol% and POPC/POPS/cholesterol 50/30/20 mol%. The peptides fluorescently labeled (see Figure 1 for structure) were added at a concentration of 2 µM and the experiments were performed at room temperature.
(§4) For kinetic traces, the time course of fluorescence intensity corresponding to peptides and Alexa Fluor 488 inside GUVs was measured. The data from three experiments were averaged and then fitted with a single rising exponential function to determine the values of internalization rates:F(t) = 1 − exp (−kint × t) (1) where t is time and kint is the peptide internalization rate constant.
(§5) The intensity corresponding to release of tracer Alexa Fluor 488 from GUVs in the presence of peptides was also measured to determine the efflux rates, using a single exponential decay function:F(t) = exp (−keff × t) (2) where t is time and keff is the peptide efflux rate constant.

[2] = Peptide internalization and Alexa Fluor 488 efflux in POPS GUVs, confocal laser scanning microscopy; assay type: in vitro ADME; conditions: room temperature; for Kint, peptide internalization rate constant: GUVs POPC/POPS/chol 50/30/20 mol%, 2 µM fluorescently labeled peptide, 180 mM glucose, 20 mM Hepes pH 7.5, CLSM fluorescence inside GUVs, fit F(t)=1−exp(−kint×t), data from three experiments averaged; for Internalization of peptide in GUVs / Pore formation (efflux of AF 488, lytic effect): POPC/POPS/chol 50/30/20 mol% GUVs, 2 µM peptide, 30 min, CLSM
Procedure: as §1, §2, §3, §4, §5

[3] = Peptide internalization and Alexa Fluor 488 efflux in neutral GUVs, confocal laser scanning microscopy; assay type: in vitro ADME; conditions: POPC/chol 80/20 mol% GUVs; 2 µM peptide; room temperature; up to 30 min; CLSM
Procedure: as §1, §2, §3

[4] = TAMRA-TAT internalization and Alexa Fluor 488 efflux in GUVs with increasing cholesterol; assay type: in vitro ADME; conditions: 40 mol% chol (POPC/POPE/POPS/chol 30/20/10/40 mol%); CLSM
Procedure: as §1
The experiments were performed using a confocal laser scanning microscope (Nikon Ti-E, Tokyo, Japan), equipped with LU4 Four-Laser Module with AOTF, a Plan Fluor 40x DIC M N2 objective and a DS-F1camera. […] For each type of experiment, at least 10–15 GUVs with a diameter of 30–40 μm from two independent experiments were analyzed. Successive images were collected using the Nis-Elements Advanced Research imaging software (Nikon) and then quantification of fluorescence was performed using Fiji ImageJ [14]. The resulting data were then analyzed with Origin Pro 8.5 (OriginLab Corporation, Northampton, MA, USA). […]

[5] = DOPS and/or DOPE containing GUVs; cited from earlier work
From the text: In GUVs that contain 30 mol% PE, all peptides internalize, but only TAT and NKCS are able to form transmembrane pores through which the fluorescent dyes Alexa Fluor 488 can pass.

[6] = POPC/POPE/chol 50/30/20 mol% GUVs, 2 µM peptide, 30 min, CLSM

| Compound | Kint, peptide internalization rate constant [1] | Efflux of AF 488 (lytic effect, pore formation) [1, 6] | Internalization of peptide in GUVs [1, 6] | Kint, peptide internalization rate constant [2] | Internalization of peptide in GUVs [2] | Pore formation (efflux of AF 488, lytic effect) [2] | Efflux of Alexa Fluor 488 from GUVs [3] | Internalization of peptide in GUVs [3] | Internalization of the peptide [4] | Pore formation [5] |
| --- | --- | --- | --- | --- | --- | --- | --- | --- | --- | --- |
| Dy647P1-LRRISKDILTGKK [NKCS-[15-27]] | (0.20 ± 0.04) × 10^−3 s^−1 | without the release of AF 488 | internalized | (0.50 ± 0.23) × 10^−3 s^−1 | internalized | no lytic effect; also recorded: just translocate without generating pores | Neither peptide internalization nor AF 488 efflux can be observed | Neither peptide internalization nor AF 488 efflux can be observed | – | – |
| Dy647P1-CGNKRTR [tLyP-1, Dy647P1-labeled tumor homing peptide, truncated linear form of cyclic peptide LyP-1] | (0.78 ± 0.03) × 10^−3 s^−1 | without the release of AF 488 | – | (0.75 ± 0.27) × 10^−3 s^−1 | – | just translocate without generating pores | Neither peptide internalization nor AF 488 efflux can be observed | – | – | – |
| CN(C)c1ccc2c(c1)Oc1cc(N(C)C)ccc1C21OC(=O)c2cc(C(=O)N[C@@H](Cc3ccc(O)cc3)C(=O)NCC(=O)N[C@@H](CCCNC(=N)N)C(=O)N[C@@H](CCCCN)C(=O)N[C@@H](CCCCN)C(=O)N[C@@H](CCCNC(=N)N)C(=O)N[C@@H](CCCNC(=N)N)C(=O)N[C@@H](CCC(N)=O)C(=O)N[C@@H](CCCNC(=N)N)C(=O)N[C@@H](CCCNC(=N)N)C(=O)N[C@@H](CCCNC(=N)N)C(=O)O)ccc21 [TAT, reference compound] | – | – | – | – | internalized | – | – | Neither peptide internalization nor AF 488 efflux can be observed | neither the internalization of the peptide nor the efflux of the fluorescent tracer could be registered | – |
| nona-arginine [R9] | – | – | – | – | – | – | – | – | – | able to form pores |
